The target of one experiment is T1, 17β-HSD10 (Homo sapiens, UniProt Q99714).
T1 construct: expressed in transfected cells
T1 sequence (Q99714 1-261): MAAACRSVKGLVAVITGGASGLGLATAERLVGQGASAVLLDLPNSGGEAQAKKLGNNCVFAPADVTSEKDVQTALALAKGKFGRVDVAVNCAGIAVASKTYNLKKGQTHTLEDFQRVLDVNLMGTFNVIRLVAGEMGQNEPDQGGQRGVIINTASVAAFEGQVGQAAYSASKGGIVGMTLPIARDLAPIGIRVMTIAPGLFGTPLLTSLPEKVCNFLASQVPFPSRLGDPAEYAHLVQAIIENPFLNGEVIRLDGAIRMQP
The experiment can be described thus: Inhibition of 17β-HSD10 in stably transfected HEK-293 whole cells (E2 into E1). It is filed as cell-based.

Experiment [1] concerns the target T2, 17β-HSD3 (Homo sapiens, UniProt P37058).
T2 construct: expressed in transfected cells; host or cells: HEK-293 (homogenate)
T2 sequence (P37058 1-310): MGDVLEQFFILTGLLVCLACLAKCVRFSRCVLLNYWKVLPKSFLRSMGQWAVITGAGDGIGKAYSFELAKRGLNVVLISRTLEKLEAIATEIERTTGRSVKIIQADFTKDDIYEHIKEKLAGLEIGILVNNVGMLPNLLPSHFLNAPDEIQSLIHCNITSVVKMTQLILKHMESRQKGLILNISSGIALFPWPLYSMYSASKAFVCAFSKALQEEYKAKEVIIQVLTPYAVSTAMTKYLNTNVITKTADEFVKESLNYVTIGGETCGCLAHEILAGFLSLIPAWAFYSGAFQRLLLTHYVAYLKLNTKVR
The experiment can be described thus: Inhibition of 17β-HSD3 in intact HEK-293 cells. It counts as cell-based. The following applies: for Intact cells (%), tested at 1 μM: Table 3, footnote b.

The target of experiment [2] is T2, 17β-HSD3. Briefly: Inhibition of 17β-HSD3 in homogenated HEK-293 cells. It is filed as biochemical.
The mark [3] stands for this setting: HEK293, [14C]-E2 (1 μM) into [14C]-E1, intact HEK-293 cells, 1 μM, read-out: Inhibition (%) at 1 μM.
[4] abbreviates: HEK293, 1 h, Table 3, read-out: Intact cells (%) (0.1 μM).
Setting [5] is: Table 3, read-out: Homo (%) (0.01 μM).
Where [6] appears, read: Table 3, read-out: Homo (%) (0.1 μM).
Setting [7] is: [14C]-E2 (1 μM) into [14C]-E1, intact HEK-293 cells, 1 μM.

Read-outs that look alike come from different tables or passages of the source.

As for `C[C@]12CC[C@](O)(CN3CCN(Cc4ccccc4)CC3)C[C@@H]1CC[C@@H]1[C@@H]2CC[C@]2(C)C(=O)CC[C@@H]12` [Compound 7j, (3α,5α)-3-[(4-benzylpiperazin-1-yl)methyl]-3-hydroxyandrostan-17-one], the inhibition at 1 µM on 17β-HSD10 (HEK293, read-out: Inhibition (%) at 1 μM) came out at 57%; on 17β-HSD3 [1] (HEK293, 1 h, read-out: Intact cells (%) (1 μM), Table 2 (17β-HSD3), 1 μM), 80%; at 17β-HSD3 [2] (read-out: Homo (%) (1 μM), Table 2 (17β-HSD3), 1 μM) it was 90%. Also, the inhibition at 0.1 µM at 17β-HSD3 [1] (HEK293, 1 h, read-out: Intact cells (%) (0.1 μM), Table 2 (17β-HSD3)) was 37%; at 17β-HSD3 [1] (HEK293, 1 h, read-out: Intact cells (%) (0.1 μM), Table 3), 38%; at 17β-HSD3 [2] (read-out: Homo (%) (0.1 μM), Table 2 (17β-HSD3)) it was 72%; at 17β-HSD3 [2] (read-out: Homo (%) (0.1 μM), Table 3), 74%. In addition, the inhibition at 0.01 µM on 17β-HSD3 [2] (Table 2 (17β-HSD3), [14C]-Δ4-dione 50 nM into [14C]-T, read-out: Homo (%) (0.01 μM)) is 35%; at 17β-HSD3 [2] (read-out: Homo (%) (0.01 μM), Table 3), 36%.
For `C[C@]12CC[C@](O)(CN3CCN(Cc4cccc(C(F)(F)F)c4)CC3)C[C@@H]1CC[C@@H]1[C@@H]2CC[C@]2(C)C(=O)CC[C@@H]12` [Compound 10a, (3α,5α)-3-hydroxy-3-({4-[3-(trifluoromethyl)benzyl]piperazin-1-yl}methyl)androstan-17-one], the inhibition at 1 µM on 17β-HSD10 (setting [3]) was determined as 34%. Besides, the inhibition at 0.1 µM on 17β-HSD3 [1] (setting [4]) stood at 52%; at 17β-HSD3 [2] (setting [6]), 88%. For the same compound, the inhibition at 0.01 µM at 17β-HSD3 [2] (setting [5]) stood at 51%.
Taken in the same sequence, the figures for `C[C@]12CC[C@](O)(CN3CCN(Cc4ccccc4C(F)(F)F)CC3)C[C@@H]1CC[C@@H]1[C@@H]2CC[C@]2(C)C(=O)CC[C@@H]12` [Compound 10b, (3α,5α)-3-hydroxy-3-({4-[2-(trifluoromethyl)benzyl]piperazin-1-yl}methyl)androstan-17-one] were 50%, 20%, 86% and 18%.
In the case of `C[C@]12CC[C@](O)(CN3CCN(Cc4cccc(SC(F)(F)F)c4)CC3)C[C@@H]1CC[C@@H]1[C@@H]2CC[C@]2(C)C(=O)CC[C@@H]12` [Compound 10d, (3α,5α)-3-hydroxy-3-[(4-{3-[(trifluoromethyl)sulfanyl]benzyl}piperazin-1-yl)methyl]androstan-17-one], at 17β-HSD10 (setting [3]), the inhibition at 1 µM was determined as 29%. The “Intact cells (%), tested at 1 μM” value on 17β-HSD3 [1] (1 μM) is recorded as “N/A (62)^b %”. Further, the inhibition at 0.01 µM on 17β-HSD3 [2] (setting [5]) amounted to 3%. Further, the inhibition at 0.1 µM at 17β-HSD3 [2] (setting [6]) amounted to 91%.
With `C[C@]12CC[C@](O)(CN3CCN(Cc4cccc(Cl)c4)CC3)C[C@@H]1CC[C@@H]1[C@@H]2CC[C@]2(C)C(=O)CC[C@@H]12` [Compound 10e, (3α,5α)-3-{[4-(3-chlorobenzyl)piperazin-1-yl]methyl}-3-hydroxyandrostan-17-one], the “Inhibition (%) at 1 μM” value at 17β-HSD10 (setting [7]) came out at 21%. The “Intact cells (%), tested at 1 μM” value on 17β-HSD3 [1] (1 μM) is on record as “N/A (75)^b %”. At 17β-HSD3 [2] (Table 3), the “Homo (%) (0.01 μM)” value worked out at 26% and the “Homo (%) (0.1 μM)” value is reported as 85%.
One may read the IC50 as the concentration that gives 50% inhibition. As to `COc1cccc(CN2CCN(C[C@@]3(O)CC[C@@]4(C)[C@@H](CC[C@@H]5[C@@H]4CC[C@]4(C)C(=O)CC[C@@H]54)C3)CC2)c1` [Compound 10f, (3α,5α)-3-hydroxy-3-{[4-(3-methoxybenzyl)piperazin-1-yl]methyl}androstan-17-one], the inhibition at 1 µM on 17β-HSD10 (setting [3]) is 59%. For the same compound, the IC50 at 17β-HSD10 (intact transfected HEK-293 cells, E2 1 μM, read-out: IC50) was 550 nM. The inhibition at 0.1 µM stood at 47% at 17β-HSD3 [1] (setting [4]) and 83% on 17β-HSD3 [2] (setting [6]). Also, the inhibition at 0.01 µM at 17β-HSD3 [2] (setting [5]) was found to be 21%.
`C[C@]12CC[C@](O)(CN3CCN(Cc4cccnc4)CC3)C[C@@H]1CC[C@@H]1[C@@H]2CC[C@]2(C)C(=O)CC[C@@H]12` [Compound 10g, (3α,5α)-3-hydroxy-3-{[4-(pyridin-3-ylmethyl)piperazin-1-yl]methyl}androstan-17-one]: the inhibition at 1 µM at 17β-HSD10 (setting [3]) is 37%. For the same compound, the “Intact cells (%), tested at 1 μM” value at 17β-HSD3 [1] (1 μM) was “N/A (63)^b %”. The inhibition at 0.01 µM on 17β-HSD3 [2] (setting [5]) is 10%. Further, the inhibition at 0.1 µM at 17β-HSD3 [2] (setting [6]) was 33%.
On to `CC1CN(C[C@@]2(O)CC[C@@]3(C)[C@@H](CC[C@@H]4[C@@H]3CC[C@]3(C)C(=O)CC[C@@H]43)C2)C(C)CN1Cc1cccc(C(F)(F)F)c1` (stereo partly drawn) [Compound 11a, (3α,5α)-3-({(2ξ,5ξ)-2,5-dimethyl-4-[3-(trifluoromethyl)benzyl]piperazin-1-yl}methyl)-3-hydroxyandrostan-17-one], for which, at 17β-HSD10 (setting [7]), the “Inhibition (%) at 1 μM” value was determined as 26%. The “Intact cells (%), tested at 1 μM” value on 17β-HSD3 [1] (1 μM) is “N/A (78)^b %”. In addition, on 17β-HSD3 [2] (Table 3), the “Homo (%) (0.01 μM)” value amounted to 31% and the “Homo (%) (0.1 μM)” value was determined as 89%.
Regarding `CC1CN(CC2(O)CCC3(C)C(CCC4C5CCC(=O)C5(C)CCC43)C2)C(C)CN1Cc1ccccc1C(F)(F)F` (stereo not drawn) [Compound 11b, (3α,5α)-3-({(2ξ,5ξ)-2,5-dimethyl-4-[2-(trifluoromethyl)benzyl]piperazin-1-yl}methyl)-3-hydroxyandrostan-17-one], the “Inhibition (%) at 1 μM” value on 17β-HSD10 (setting [7]) was found to be 25%. Also, the “Intact cells (%) (0.1 μM)” value on 17β-HSD3 [1] (Table 3) is listed as 36%. At 17β-HSD3 [2] (Table 3), the “Homo (%) (0.01 μM)” value stood at 22% and the “Homo (%) (0.1 μM)” value is given as 85%.
Taken in the same sequence, the figures for `CC1CN(C[C@@]2(O)CC[C@@]3(C)[C@@H](CC[C@@H]4[C@@H]3CC[C@]3(C)C(=O)CC[C@@H]43)C2)C(C)CN1Cc1ccc(C(F)(F)F)cc1` (stereo partly drawn) [Compound 11c, (3α,5α)-3-({(2ξ,5ξ)-2,5-dimethyl-4-[4-(trifluoromethyl)benzyl]piperazin-1-yl}methyl)-3-hydroxyandrostan-17-one] were 24%, 36%, 14% and 87%.
For `CC1CN(C[C@@]2(O)CC[C@@]3(C)[C@@H](CC[C@@H]4[C@@H]3CC[C@]3(C)C(=O)CC[C@@H]43)C2)C(C)CN1Cc1cccc(SC(F)(F)F)c1` (stereo partly drawn) [Compound 11d, (3α,5α)-3-{[(2ξ,5ξ)-2,5-dimethyl-4-{3-[(trifluoromethyl)sulfanyl]benzyl}piperazin-1-yl]methyl}-3-hydroxyandrostan-17-one], the “Inhibition (%) at 1 μM” value on 17β-HSD10 (setting [7]) worked out at 27%. Moreover, the “Intact cells (%), tested at 1 μM” value on 17β-HSD3 [1] (1 μM) is given as “N/A (58)^b %”. Moreover, on 17β-HSD3 [2] (Table 3), the “Homo (%) (0.01 μM)” value is 18% and the “Homo (%) (0.1 μM)” value amounted to 88%.
`CC1CN(C[C@@]2(O)CC[C@@]3(C)[C@@H](CC[C@@H]4[C@@H]3CC[C@]3(C)C(=O)CC[C@@H]43)C2)C(C)CN1Cc1cccc(Cl)c1` (stereo partly drawn) [Compound 11e, (3α,5α)-3-{[(2ξ,5ξ)-4-(3-chlorobenzyl)-2,5-dimethylpiperazin-1-yl]methyl}-3-hydroxyandrostan-17-one]: on 17β-HSD10 (setting [7]), the “Inhibition (%) at 1 μM” value is listed as 25%. The “Intact cells (%), tested at 1 μM” value on 17β-HSD3 [1] (1 μM) is “N/A (55)^b %”. On 17β-HSD3 [2] (Table 3), the “Homo (%) (0.01 μM)” value was determined as 26% and the “Homo (%) (0.1 μM)” value worked out at 84%.
`COc1cccc(CN2CC(C)N(C[C@@]3(O)CC[C@@]4(C)[C@@H](CC[C@@H]5[C@@H]4CC[C@]4(C)C(=O)CC[C@@H]54)C3)CC2C)c1` (stereo partly drawn) [Compound 11f, (3α,5α)-3-hydroxy-3-{[(2ξ,5ξ)-4-(3-methoxybenzyl)-2,5-dimethylpiperazin-1-yl]methyl}androstan-17-one]: the inhibition at 1 µM on 17β-HSD10 (setting [3]) worked out at 21%. The inhibition at 0.1 µM on 17β-HSD3 [1] (setting [4]) came to 50%; on 17β-HSD3 [2] (setting [6]), 87%. Besides, the inhibition at 0.01 µM on 17β-HSD3 [2] (setting [5]) was found to be 19%.
Consider `CC1CN(CC2(O)CCC3(C)C(CCC4C5CCC(=O)C5(C)CCC43)C2)C(C)CN1Cc1cccnc1` (stereo not drawn) [Compound 11g, (3α,5α)-3-{[(2ξ,5ξ)-2,5-dimethyl-4-(pyridin-3-ylmethyl)piperazin-1-yl]methyl}-3-hydroxyandrostan-17-one], for which the “Inhibition (%) at 1 μM” value at 17β-HSD10 (setting [7]) is reported as 21%. The “Intact cells (%), tested at 1 μM” value at 17β-HSD3 [1] (1 μM) is on record as “N/A (58)^b %”. For the same compound, on 17β-HSD3 [2] (Table 3), the “Homo (%) (0.01 μM)” value is 17% and the “Homo (%) (0.1 μM)” value was determined as 47%.
With `C[C@]12CC[C@](O)(CN3CCN(C(=O)c4ccccc4C(F)(F)F)CC3)C[C@@H]1CC[C@@H]1[C@@H]2CC[C@]2(C)C(=O)CC[C@@H]12` [Compound 12c, (3α,5α)-3-hydroxy-3-[(4-{[2-(trifluoromethyl)phenyl]carbonyl}-piperazin-1-yl)methyl]androstan-17-one], the inhibition at 1 µM on 17β-HSD10 (setting [3]) was found to be 47%. The inhibition at 0.1 µM worked out at 62% on 17β-HSD3 [1] (setting [4]) and 86% at 17β-HSD3 [2] (setting [6]). In addition, on 17β-HSD3 [2] (setting [5]), the inhibition at 0.01 µM was found to be 31%.

(Values after patent US11072632B2, “Inhibitors of 17β-HSD1, 17β-HSD3 and 17β-HSD10” (UNIVERSITÉ LAVAL, priority 2011, dated 2021).)
